System: 6 mm excisional wounds on the back of db/db mice
Test: Excisional wound healing in db/db mice (digital planimetry)
Type: in vivo, mouse
Settings: topical on days 0, 2, 4, 6, 8, 10e-2, 10e-5, 10e-7 m oleuropein, treated (right) and untreated (left) wound, vs PBS
Method: Female db/db mice (BKS.Cg-m+/+Lepr^db) aged 10 to 12 weeks were used. They were obtained through Charles River Laboratories (Spain), the average weight of the animals upon reception was 35.64 g. Throughout the entire study, the animals were kept in animal houses particularly designed for allowing control of the animals' environment, such as relative humidity (30-70%), temperature (22±2° C.), air pressure, number of renewals and light period ( 12/12 hours of light/darkness). Access to water was “ad libitum” and the diet was a standard dry pellet diet for rats supplied by PanLab (Barcelona, Spain). After the acclimatization period, the mice were randomly distributed into the different study groups. […]
On day 0 of the experiment, two 6 mm excisional wounds were made on the back of every mouse under aseptic conditions and using surgical instruments. […] The wound healing process was tracked and evaluated throughout the experiment (see FIG. 3). […]
In order to track the wound healing, a digital planimetry method was used whereby the area of every wound was quantified. The inter-group differences have been determined by means of a two-way ANOVA statistical analysis followed by a Bonferroni post-hoc analysis. […]

Substance: VEGF
- wound healing (wound area): healing effect

Source: patent US20120141435A1, “USE OF OLIVE LEAF EXTRACTS IN A PHARMACEUTICAL COMPOSITION FOR INDUCING ANGIOGENESIS AND VASCULOGENESIS” (SANIDAD Y RESIDENCIAS 21, S.A., priority 2009, published 2012)
